Experimental data reported in patent publication US20220249528A1 (CELGENE CORPORATION, priority 2019, published 2022).
Peptide text beside a SMILES is read from it. * marks the point of attachment. Cbz = O=C(OCc1ccccc1)*; CH2F = FC*

What was measured:
MCL-1 in MV4-11 cells = test: Western blot of MCL-1 degradation; assay type: cell-based; settings: 20 μM Z-VAD-FMK 1 hour before 5-azacytidine for 16 hours, FIG. 13B
Method: Lysates were quantified using a bicinchoninic acid (BCA) kit (Piece/Thermo Fisher, Waltham, Mass.). 20 to 30 μg protein was resolved on a 4-12% SDS-PAGE gel, transferred to PVDF membranes (80V/90 minute by wet-transfer), and blocked with Oddysey TBS blocking buffer for 1 hour and then probed with appropriate primary antibodies overnight at 4° C. using dilution as recommended by manufacturer. Membranes were washed three times for a total of 30 minutes and then incubated with secondary antibodies at room temperature in the dark for 1 hour. After another three washes, Odyssey infrared imaging system and companion software (LI-COR biosciences, Lincoln, Nebr., USA) were used to scan immunoblot membranes and to quantify band intensity according to the manufacturer's instructions. The ratio of proteins of interest to loading control in treated samples was normalized to the corresponding ratio in untreated cells. Antibodies used for immunoblotting were purchased from the following sources: BCL-2 (sc-7382), MCL1-(sc-819) from Santa Cruz Biotechnology (Dallas, Tex., USA, Bim (2819), caspase-3 (9664) from Cell Signaling Technology; beta-Actin (A2228) from Sigma-Aldrich; DNMTI (ab188453) from AbCam; IRDye 680 goat anti-rabbit and IRDye 800 goat anti-mouse secondary antibodies (#925-68073 and #925-32212) were purchased from Li-COR Biosciences (Lincoln, Nebr.). […]

22 AML cell lines = test: Cell viability and 5-azacytidine-venetoclax synergy in AML cell line panel; assay type: cell-based; settings: venetoclax-resistant lines Kasumi-1, Kasumi-2 and NOMO-1
MV4-11 xenograft model = test: Disseminated AML xenograft survival study; assay type: in vivo, mice; settings: 5-azacytidine LEED regimen 1 mg/kg qd×5×3, alone or with venetoclax or midostaurin 100 mg/kg qd×21; vehicle 29.5
Method: LEED models oral administration of AZA, while HELD models intravenous or subcutaneous administration of AZA.
The animals were fed ad libitum water (reverse osmosis, 1 ppm Cl), and NIH 31 Modified and Irradiated Lab Diet® consisting of 18.0% crude protein, 5.0% crude fat, and 5.0% crude fiber. […] (68-72° F.) and 40-60% humidity.
On each day of dosing, an appropriate amount of gilteritinib was dissolved in 0.5% methylcellulose in DI water to yield a dosing solution at 0.4 mg/mL. Each week, an appropriate amount of venetoclax was dissolved in 10% ethanol:30% PEG400:60% phosal 50 propylene glycol to yield a dosing solution at 10 mg/mL. […]
Animals were monitored individually for an endpoint of moribundity due to progression of the leukemia. […] The time to endpoint (TTE), in days, was recorded for each mouse that died of its disease or was euthanized due to extensive tumor progression. […] The median TTE value was calculated for each group. The median TTE of treated mice was expressed as a percentage of the median TTE of the control mice (% T/C), and the increase in life span (ILS) was calculated as: ILS=% T/C−100%, where T=median TTE treated, and C=median TTE control. […]
Animals were weighed daily on Days 1-5, then twice per week until the completion of the study. […] Group mean body weight loss also was monitored as per protocol. […] Survival was analyzed by the Kaplan-Meier method, based on TTE values.

MV4-11 cells = test: RNASeq analysis, differential expression and KEGG pathways; assay type: cell-based
Excerpt: After treatment, cells were recovered, washed once in PBS, and flash frozen as cell pellets. Cell pellets were sent to Canopy Biosciences for RNA extraction and library preparation and sequencing. RNA was extracted using the Qiagen RNeasy Mini Kit according to manufacturer's instructions. A modified protocol was used to preserve miRNA species. […] MCL1 RNA levels in other cell lines were quantified by RNASeq using standard methods.
Libraries were multiplexed and sequenced using Illumina HiSeq. All gene counts were then imported into the R/Bioconductor package EdgeR and TMM normalization size factors were calculated to adjust for samples for differences in library size. Ribosomal genes and genes not expressed in the smallest group size minus one samples greater than one count-per-million were excluded from further analysis. Differential expression analysis was then performed to analyze for differences between conditions and the results were filtered for only those genes with Benjamini-Hochberg false-discovery rate adjusted p-values less than or equal to 0.05. Global perturbations in known Gene Ontology (GO) terms and KEGG pathways were detected using the R/Bioconductor package GAGE to test for changes in expression of the reported log 2 fold-changes reported by Limma in each term versus the background log 2 fold-changes of all genes found outside the respective term. The R/Bioconductor package heatmap and Pathview was used to display heatmaps or annotated KEGG graphs across groups of samples for each GO term or KEGG pathway (respectively) with a Benjamini-Hochberg false-discovery rate adjusted p-value less than or equal to 0.05. To find differentially expressed genes, the raw counts were variance stabilized with the R/Bioconductor package DESeq2.

[1] = tested on: ATF3 and SCD mRNA in MV4-11 cells; test: Real-time PCR validation of ATF3 and SCD expression; assay type: cell-based; settings: for ATF3 expression: FIG. 14C; for SCD expression: 24 hours, FIG. 14D
Method: At this time, cells were recovered and RNA was extracted using Qiagen RNeasy kit according to manufacturer's instructions. Reverse transcription was performed using SuperScript VILO cDNA synthesis kit. Validated Taqman probes and Taqman Fast Advanced Master Mix was used with Viia 7 Real-Time PCR System (Invitrogen/ThermoFisher Scientific, Waltham, Mass.) to quantify transcripts of ATF3, SCD, and 18S mRNA.

MCL-1 in THP-1 cells = test: Western blot of MCL-1 degradation; assay type: cell-based; settings: THP-1, by 24 hours
Method: (§1) Lysates were quantified using a bicinchoninic acid (BCA) kit (Piece/Thermo Fisher, Waltham, Mass.). 20 to 30 μg protein was resolved on a 4-12% SDS-PAGE gel, transferred to PVDF membranes (80V/90 minute by wet-transfer), and blocked with Oddysey TBS blocking buffer for 1 hour and then probed with appropriate primary antibodies overnight at 4° C. using dilution as recommended by manufacturer. Membranes were washed three times for a total of 30 minutes and then incubated with secondary antibodies at room temperature in the dark for 1 hour. After another three washes, Odyssey infrared imaging system and companion software (LI-COR biosciences, Lincoln, Nebr., USA) were used to scan immunoblot membranes and to quantify band intensity according to the manufacturer's instructions. The ratio of proteins of interest to loading control in treated samples was normalized to the corresponding ratio in untreated cells.

MCL-1 in KG1a cells = test: Western blot of MCL-1 degradation; assay type: cell-based; settings: FIG. 12A
Method: as §1

MCL-1 in OCI-AML2 cells = test: Western blot of MCL-1 degradation; assay type: cell-based; settings: OCI-AML2, FIG. 12D
Method: as §1

[2] = 1 μM 5-azacytidine vs PBS, 24 h

| Structure (SMILES) | effect on MCL-1 degradation by 5-azacytidine (MCL-1 in MV4-11 cells) | effect of co-treatment on venetoclax resistance (22 AML cell lines) | median survival (MV4-11 xenograft model) | Mean logFC, KEGG pathway Metabolic pathways (MV4-11 cells; [2]) | Mean logFC, KEGG pathway Taste transduction (MV4-11 cells; [2]) | ATF3 expression increase (MV4-11 cells; RNAseq, 48 hours after 5-azacytidine treatment) | ATF3 expression ([1]; 0.3 μM, 24 or 48 hours) | SCD expression ([1]; 3 μM) | ATF3 expression ([1]; 0.3, 1 or 3 μM, 24 and 48 hours) | SCD expression ([1]; low concentrations) | extent of MCL-1 degradation (MCL-1 in THP-1 cells) | start of MCL-1 degradation after treatment (MCL-1 in KG1a cells) | MCL-1 degradation (MCL-1 in OCI-AML2 cells) |
| --- | --- | --- | --- | --- | --- | --- | --- | --- | --- | --- | --- | --- | --- |
| COC(=O)C[C@H](NC(=O)[C@H](C)NC(=O)[C@@H](NC(=O)OCc1ccccc1)C(C)C)C(=O)CF [Z-VAD-FMK] (Cbz-Val-Ala-Asp(OMe)-CH2F) | partially ablated |  |  |  |  |  |  |  |  |  |  |  |  |
| Nc1ncn([C@@H]2O[C@H](CO)[C@@H](O)[C@H]2O)c(=O)n1 [5-azacytidine, 4-amino−1-B-D-ribofuranosyl-1,3,5-triazin-2(1H)-one] |  | reversal of venetoclax resistance | 35 | −5.29 | 2.44 | two-fold | not sufficient to induce ATF3 expression | decreased rapidly within 24 hours | increased in a time- and concentration-dependent manner | not affected | incomplete degradation by 24 hours | 6 h | did not lead to any degradation of MCL-1 |
